Patent US8969333B2, “Therapeutic compositions and methods” (The Penn State Research Foundation, priority 2010, dated 2015)

Assays:
[1] = tested on: LC3; test: Western blot of LC3 cleavage (autophagy); assay type: cell-based, human; conditions: U2OS cells, concentration-dependent
Procedure: YW3-56 induces cell death by autophagy, a cell death process in which cellular proteins and organelles are degraded by fusion with lysosomes. Cleavage of LC3-I to generate a fast migrating isoform LC3-II is a characteristic autophagy event. LC3 cleavage is induced after YW3-56 treatment in a concentration-dependent manner as shown in the Western blot in FIG. 6. Western blot and immunostaining was performed essentially as described in Li, P. et al., Oncogene 29 (21), 3153-3162 (2010). Antibodies used in Western blot were anti-p53 (Sigma), anti-PAD4, anti-p21 (Sigma), anti-PUMA (Calbiochem), anti-SESN2 (Abeam), anti-p70S6K (Cell Signaling), anti-p70S6K-[…] (Cell Signaling), anti-LC3 (Cell Signaling) and anti-β-actin (Sigma) at appropriate dilutions. Anti-LC3B antibody (Cell Signaling) was used for immunostaining. DNA was stained by the DNA dye Hoechst.

[2] = tested on: p53 and its target genes; test: RT-qPCR of p53 and its target genes in S180 cells; assay type: cell-based, mouse; conditions: concentration dependent
Procedure: (§1) RNA was extracted using RNeasy Mini Kit (Qiagen) per manufacturer's instructions. 1 μg RNA was reverse transcribed into cDNA using qScript cDNA SuperMix (Quanta Biosciences) per manufacturer's instructions. Quantitative PCR was performed using SYBR Green SuperMix (Quanta Biosciences) in StepOnePlus Real-Time PCR System (Applied Biosystems). FIG. 10 is a graph showing p53 and its target gene expression induced in S180 cells by YW3-56 in a concentration dependent manner.

[3] = tested on: S180 cells; test: MTT assay of S180 cell growth inhibition; assay type: cell-based; conditions: Mus musculus, S-180
Procedure: (§2) Cells were treated with individual compounds at different concentrations for 72 hr in 24-well plates. MTT reagent was added to a final concentration of 0.5 mg/ml and further incubated for 4 hr. The yellow-colored MTT was reduced to insoluble purple-colored Formazan in living cells. Culture medium was removed and DMSO was added to dissolve Formazan into solution. The absorbance of the solution was then measured at 570 nm using a Thermo BioMate™ 3 spectrophotometer.

[4] = tested on: U2OS human osteosarcoma cells; test: MTT assay of U2OS cancer cell growth inhibition; assay type: cell-based
Procedure: as §2, with “MIT assays are conducted to evaluate activity to inhibit cancer cell growth. U2OS human osteosarcoma cells were” for “Cells were”, “plates. MIT” for “plates. MTT”, “spectrophotometer. Results are shown in FIG. 1 and average and standard deviations are shown (n>=3).” for “spectrophotometer.”
as §2

[5] = tested on: Sesn2 promoter (+733 position); test: ChIP analysis at the sestrin2 promoter in U2OS cells; assay type: cell-based, human; conditions: 8 μM, 8 hr
Procedure: Chromatin immunoprecipitation experiments are performed to test if p53 and histone Arg modifications directly regulate Sesn2 gene promoter. ChIP experiments were carried out essentially as described in Li, P. et al., Mol. Cell Biol., 28 (15), 4745-4758 (2008). Antibodies used in ChIP were: anti-p53 (Sigma), anti-PAD4, anti-H3Cit (Abeam), anti-H3R17Me (Abeam). Multiple pairs of primers spanning different regions of Sesn2 are designed to identify a p53 binding site at the Sesn2 gene. p53 binding is relatively […] at the +733 position in untreated U2OS cells, while its binding to this site is dramatically elevated after DNA damage induced by UV irradiation. After 8 hr YW3-56 treatment, p53 binding at the +733 position of Sesn2 is increased >4-fold with a concomitant increase of histone H3 Arg17 methylation (H3R17Me) (FIG. 14G, upper panel). In contrast, after YW3-56 treatment, a decrease in PAD4 binding and histone H3 citrullination (H3Cit) at the +733 position is consistently detected. ChIP results support a model in which p53 associates with while PAD4 dissociates from the Sesn2 promoter after YW3-56 treatment, allowing a decrease in H3Cit and an increase in H3R17Me to facilitate Sesn2 expression.
FIG. 14G, ChIP analyses of p53 and PAD4 association as well as histone H3R17Me and H3Cit modifications at the sestrin2 promoter before and after YW3-56 treatment at 8 μM for 8 hr. […]

[6] = tested on: p53 and its target genes; test: RT-qPCR and Western blot of p53 and its target genes in U2OS cells; assay type: cell-based, human
Procedure: Western blot and immunostaining was performed essentially as described in Li, P. et al., Oncogene 29 (21), 3153-3162 (2010). Antibodies used in Western blot were anti-p53 (Sigma), anti-PAD4, anti-p21 (Sigma), anti-PUMA (Calbiochem), anti-SESN2 (Abeam), anti-p70S6K (Cell Signaling), anti-p70S6K-pT389 (Cell Signaling), anti-LC3 (Cell Signaling) and anti-β-actin (Sigma) at appropriate dilutions. Anti-LC3B antibody (Cell Signaling) was used for immunostaining. DNA was stained by the DNA dye Hoechst.
as §1
U2OS and S-180 cells were cultured in Dulbecco modified Eagle medium (DMEM) supplemented with 10% fetal bovine serum and 1% penicillin-streptomycin in a 5% CO2 incubator. U2OS p53-shRNA and U2OS Ctrl-shRNA cells were generated as described in Li, P. et al., Regulation of p53 target gene expression by peptidylarginine deiminase 4. Mol Cell Bial 28 (15), 4745-4758 (2008). Concentrations and duration of YW3-56 treatment were performed as specified in the figures and text. For starvation assay, U2OS cells were first cultured in serum-free DMEM for 16 hr, 10% fetal bovine serum and different concentrations of YW3-56 was then added back and cells were further incubated for 8 hr before further analyses. SESN2 siRNA (Santa Cruz) and GFP siRNA (Dharmacon Inc.) were transfected into U2OS cells using the XtremeGene siRNA transfection reagents (Roche Inc.). Cells were incubated in the presence of the siRNA for 48 hr before adding YW3-56 and further incubated for 8 hr before analyses.
The relative abundance of each gene is compared with β-actin as a reference. Increase in several p53 target genes, such as p21, GADD45, PUMA, OKL38, DRAM, and Sestrin2, is detected after YW3-88 treatment at 12 μM concentration. […] Increase in p21 and PUMA proteins is detected.

SMILES: CN(C)c1ccc2cc(C(=O)N[C@@H](CCCNC(=N)CCl)C(=O)NCc3ccccc3)ccc2c1 [YW3-56]
- LC3 cleavage [1]: induced
- expression of p53 and its target genes including SESN1 and SESN2 [2]: induced the expression
- IC50 [3]: 10 to 15 µM
- U2OS cell growth in MTT assay ([4]; 20 μM, 3 days): abolished cell growth
- IC50 ([4]; Homo sapiens, read-out: 50% inhibition Cell growth, U2OS cells, MTT, 72 hr): ~2.5 µM
- PAD4 binding and histone H3 citrullination (H3Cit) at the +733 position [5]: decrease
- p53 binding at the +733 position of Sesn2, increase [5]: > 4 fold
- DRAM mRNA ([6]; U2OS cells): not altered
- p70S6K phosphorylation ([6]; U2OS cells with or without p53 depletion): inhibited
- sestrin1 and 2 mRNA and Sestrin2 protein levels ([6]; U2OS cells, concentration dependent): significantly increased
